The results in this text go back to PubChem BioAssay AID1996.

≈ marks a conversion by molar mass, not a printed value.

The conditions of the data set: buffer; pH 7.4; 200.0 µM.
In general, solubility (kinetic) refers to solubility judged after dilution from a stock solution rather than from solid. `Cc1cc(Br)cc2c1N(C)C(=O)C2(c1ccc(O)cc1)c1ccc(O)cc1` had a kinetic solubility of 7.4 µg/mL (≈ 17.4 µM).
The same measure for `CCn1c(C)nc([N+](=O)[O-])c1C(=O)O`: more than 29.9 µg/mL; for `COc1ccc(S(=O)(=O)NC(Cc2ccccc2)C(=O)O)cc1` (centres undefined): more than 50.3 µg/mL.
Then `Cc1ccc(S(=O)(=O)NC(=O)c2ccc(F)cc2)c(C)c1`, with more than 46.1 µg/mL; and `CCc1nccn1S(=O)(=O)c1cc(OC)ccc1OC`, with 32.9 µg/mL (≈ 111 µM); and `C=CCn1c(SCC(=O)Nc2cccc(S(N)(=O)=O)c2)nc2sc(C)c(C)c2c1=O`, with 3 µg/mL (≈ 6.46 µM).
Then `COCCN(CC(=O)Nc1cccc(C)c1C)C(=O)Cc1ccsc1`, with more than 54.1 µg/mL; and `COc1ccccc1NCCC(=O)OCC(=O)Nc1cc([N+](=O)[O-])ccc1F`, with 51.8 µg/mL (≈ 132 µM).
For the compound `O=C1c2cccc3c2N(CCC3)C(=O)C1(F)c1ccccc1` (centres undefined), the solubility (kinetic) was more than 44.3 µg/mL.
The same measure for `CSc1ccccc1NC(=S)NCc1ccc(Cl)cc1`: 2.5 µg/mL (≈ 7.74 µM); for `O=c1ccc(-c2nc3ccccc3n2Cc2ccc(Cl)cc2)c[nH]1`: 38.7 µg/mL (≈ 115 µM); for `O=C(c1cc(=O)[nH]c2ccccc12)N1CCN(c2ccccc2)CC1`: more than 50 µg/mL.
The same measure for `O=C(NC1CCCCC1)Oc1cc2oc(=O)sc2cc1Br`: 10.2 µg/mL (≈ 27.4 µM); for `CN(C(=O)c1ccc(Cl)cc1)C1CCS(=O)(=O)C1` (centres undefined): 41.2 µg/mL (≈ 143 µM); for `CCC(C)n1c(O)c(C=NCCN2CCOCC2)c(=O)[nH]c1=S` (centres undefined): more than 51.1 µg/mL.
Then `CCOc1ccc(NC(=O)COC(=O)C2CC2C)cc1` (centres undefined), with more than 41.6 µg/mL.
The compound `COc1ccc(NC(=O)CCCCC(=O)Nc2ccc(OC)cc2OC)c(OC)c1` yielded a solubility (kinetic) of 12.4 µg/mL (≈ 29.8 µM).
The same measure for `CCNc1nc(NCC)nc(N(CC)C(N)=S)n1`: 10 µg/mL (≈ 37.1 µM); for `Nc1ccccc1SCc1ccccc1`: 4 µg/mL (≈ 18.6 µM).
Then `Cc1c(Cl)cccc1NC(=O)c1cc(-c2ccco2)on1`, with 0.8 µg/mL (≈ 2.64 µM); and `COc1ccccc1OCCNC(=O)C(=O)c1c[nH]c2ccccc12`, with 37.2 µg/mL (≈ 110 µM).
The same measure for `Cc1cccc(C)c1NC(=S)N(CCc1ccncc1)C(C)C`: 45.6 µg/mL (≈ 139 µM); for `O=C(Nc1ccc([N+](=O)[O-])cc1)c1cc(Cl)sc1Cl`: less than 0.3 µg/mL.
Consider `Cc1[nH]c2ccccc2c1C(=O)CSC(=S)N1CCN(C)CC1`, for which the solubility (kinetic) came out at 2.4 µg/mL (≈ 6.91 µM).
The same measure for `CCOc1ccc(-c2n[nH]c(=S)o2)cc1`: more than 33.3 µg/mL; for `Cc1nc(SCC(=O)NC2CCS(=O)(=O)C2)c2c3c(sc2n1)CCC3` (centres undefined): 7.3 µg/mL (≈ 18.4 µM).
Then `Cc1ccc(Cl)cc1NC(=O)C1CC(=O)N(C(C)C)C1` (centres undefined), with 34.7 µg/mL (≈ 118 µM).
The same measure for `CC1CCN(C(=O)c2ccccc2NC(=O)Cc2ccccc2)CC1`: more than 50.5 µg/mL.
In turn, `COC(=O)CCc1nc2ccccc2nc1OC` had a solubility (kinetic) of more than 36.9 µg/mL.
Then `C=CCn1c(C(CC)CC)nc2ccccc21`, with 27.9 µg/mL (≈ 122 µM); and `COc1ccccc1CNc1cc(C)ccn1`, with 28.8 µg/mL (≈ 126 µM); and `COc1ccc(CNC(=O)COC(=O)c2cc(S(=O)(=O)N3CCOCC3)ccc2O)cc1OC`, with more than 74.2 µg/mL.
In the case of `COc1ccc(C(=O)NC(Cc2c[nH]c3ccccc23)C(=O)O)cc1` (centres undefined), the solubility (kinetic) is more than 50.8 µg/mL.
Then `N=c1oc2ccc(Cl)cc2cc1C(=O)Nc1ccc(F)cc1`, with 1 µg/mL (≈ 3.16 µM); and `COc1cc(OC)cc(C(=O)NN2CCOCC2)c1`, with more than 39.9 µg/mL; and `Cc1ccc(C(=O)Nc2ccncc2)cc1[N+](=O)[O-]`, with more than 38.6 µg/mL.
Then `COC(=O)c1ccccc1NC(=O)COC(=O)/C=C/c1cccs1`, with 1.8 µg/mL (≈ 5.21 µM); and `COc1ccc(F)cc1COc1nc(C)nc2ccccc12`, with 28.3 µg/mL (≈ 94.9 µM).
The same measure for `COc1ccc(/C=C/C2=Nc3ccccc3NC(C)(C)C2)cc1OC`: 43 µg/mL (≈ 128 µM).
As to `O=C(Nc1ccccc1)OCCCCCOC(=O)Nc1ccccc1`, the solubility (kinetic) is less than 0.4 µg/mL.
Then `CC(C)=C(NC(=O)c1ccccc1)C(=O)Nc1cccc(C(=O)O)c1`, with more than 50.8 µg/mL; and `CCN1CCCC1CNC(=O)c1cc2cc(F)ccc2[nH]1` (centres undefined), with more than 43.4 µg/mL.
Then `CSc1nnc(C)c(=O)n1COC(=O)/C=C/c1ccccc1`, with more than 47.6 µg/mL; and `CC(C)CCN1CCN(C2CSCCSC2)CC1CCO` (centres undefined), with more than 49.9 µg/mL.
Then `O=C(NC1CCCCC1)c1ccc(-n2cncn2)c([N+](=O)[O-])c1`, with more than 47.3 µg/mL; and `COc1ccc(C(=O)CC(=O)Nc2ccc([N+](=O)[O-])cc2)cc1`, with 2.6 µg/mL (≈ 8.27 µM).
`CC1CCN(C(=O)CC(NC(N)=O)c2ccccc2Cl)CC1` (centres undefined) came in with a solubility (kinetic) of 44.2 µg/mL (≈ 136 µM).
Then `COc1cccc(CNc2cc(C)ccn2)c1O`, with more than 36.6 µg/mL.
In turn, `COc1ccc(Cl)cc1NC(=O)CN1CCc2ccccc2C1` yielded a solubility (kinetic) of less than 0.4 µg/mL.
Then `CC(=O)Oc1ccccc1-c1nc(/C=C/c2ccccc2)no1`, with less than 0.3 µg/mL; and `CN1CCN(CC#CCC(O)(c2ccccc2)c2ccccc2)CC1.Cl`, with more than 55.6 µg/mL; and `O=C(NCCc1ccc(F)cc1)NC12CC3CC(CC(C3)C1)C2`, with 6.5 µg/mL (≈ 20.5 µM).
Then `O=C(c1cccc([N+](=O)[O-])c1)N1CC2C3C=CC(C3)C2C1` (centres undefined), with more than 42.6 µg/mL; and `CCCS(=O)(=O)N1CCCC(C(=O)NCC(OC)OC)C1` (centres undefined), with 45.2 µg/mL (≈ 140 µM); and `CCC(CO)NCC#Cc1ccccc1.Cl` (centres undefined), with more than 36 µg/mL.
The same measure for `CCOC(=O)c1c(C)[nH]c(C(=O)COC(=O)c2ccco2)c1C`: 3.1 µg/mL (≈ 9.71 µM); for `CCOc1ccc(NC(=O)COC(=O)CC2CCCCC2)cc1`: 26.6 µg/mL (≈ 83.3 µM).
Turning to `CCN(C(=O)Cn1c(Cl)nc2c1c(=O)n(C)c(=O)n2C)C1CCCCC1`, the solubility (kinetic) was more than 57.3 µg/mL.
The same measure for `Cn1nccc1C(=O)N1CCN(c2ccccc2F)CC1`: more than 43.2 µg/mL; for `CCOC(=O)c1ccc(NC(=O)Cc2cccs2)cc1`: more than 43.4 µg/mL; for `Cc1ccc(NC(=S)N2CCCCCC2)c(C)c1`: more than 39.4 µg/mL.
Then `CCCCC(CC)CNC(=O)C(=O)C1C(=O)Nc2ccccc21` (centres undefined), with 26.1 µg/mL (≈ 82.5 µM).
Then `COc1ccc(OC)c(CC(=O)Nc2ccc3c(c2)CCC3)c1`, with 4.1 µg/mL (≈ 13.2 µM); and `CN(C)c1ccc(C2Nc3cccc4cccc(c34)N2)cc1`, with 6.1 µg/mL (≈ 21.1 µM); and `CCc1c(C#N)sc(C(N)=O)c1CC`, with more than 31.2 µg/mL.
`CCn1c(=O)c(C(=O)NCc2ccc3c(c2)OCO3)c(O)c2ccccc21` registered a solubility (kinetic) of less than 0.4 µg/mL.
Then `CN1C(=O)c2ccc(NC(=O)C3CC3)cc2C1=O`, with 33.4 µg/mL (≈ 137 µM).
In turn, `O=C(CCSc1ccc(Cl)cc1)NC1CCCC1` registered a kinetic solubility of 32.3 µg/mL (≈ 114 µM).
`Cc1ccc(C(=O)NC(=S)NCc2ccccc2)cc1Br` showed a kinetic solubility of 0.4 µg/mL (≈ 1.1 µM).
With `c1ccc(N2CCOCCOCCOCCOCC2)cc1`, the solubility (kinetic) is more than 44.3 µg/mL.
Then `N#Cc1c(N2CCOCC2)nsc1-c1ccccc1`, with 1.6 µg/mL (≈ 5.9 µM).
The same measure for `O=C(Cn1cncn1)NCCCc1ccccc1`: more than 36.6 µg/mL; for `CCOc1ccc(C(=O)N2CCN(c3ncccn3)CC2)cc1`: 42.3 µg/mL (≈ 135 µM).
Then `CC1(C)CN=C(Nc2ccc(F)c(Cl)c2)S1`, with 0.8 µg/mL (≈ 3.09 µM).
Regarding `CCOc1ccc2oc(C(=O)Nc3ccc4c(c3)OCO4)c(C)c2c1`, the kinetic solubility is 5.7 µg/mL (≈ 16.8 µM).
The same measure for `CN(Cc1nc(-c2cccs2)no1)CC(O)c1ccccc1` (centres undefined): 42.8 µg/mL (≈ 136 µM).
Then `CN1CCCN(C(=O)CNC(=O)c2ccccc2Br)CC1`, with more than 53.1 µg/mL; and `S=C(NCC(c1ccco1)N1CCCC1)Nc1ccccc1` (centres undefined), with more than 47.3 µg/mL; and `Cc1nc([N+](=O)[O-])cn1C(C)C`, with more than 25.4 µg/mL.
In turn, `CC1CCCCN1C(=O)COc1ccc2ccc(=O)oc2c1` (centres undefined) showed a solubility (kinetic) of 36.4 µg/mL (≈ 121 µM).
`CC(=O)c1c(C)n(-c2ccc(C)cc2C)c2ccc(O)cc12` registered a solubility (kinetic) of less than 0.6 µg/mL.
Then `COc1ccc(CNc2nccs2)cc1OC`, with more than 37.5 µg/mL; and `Cc1cccc(C)c1NC(=O)CN(C)C(=O)Cn1c(=O)cnc2ccccc21`, with 52.6 µg/mL (≈ 139 µM).
Compound `CCCC(=O)Nc1ccc(C2C(=O)c3ccccc3C2=O)cc1` displayed a solubility (kinetic) of more than 46.1 µg/mL.
Then `COC(=O)/C(C#N)=C/c1c(-c2ccccc2)nc2n1CCS2`, with 7.5 µg/mL (≈ 24.1 µM); and `COc1ccc(C(=O)n2cnc3ccccc32)cc1Br`, with 46.7 µg/mL (≈ 141 µM); and `NS(=O)(=O)c1ccc(NC(=O)c2ccc(S(=O)(=O)N3CCCCCC3)cc2)cc1`, with 6.3 µg/mL (≈ 14.4 µM).
With `CCOC(OCC)c1ccc(/C=C\c2nccc(N)n2)cc1`, the solubility (kinetic) turned out to be 13.7 µg/mL (≈ 45.8 µM).
Compound `COC(=O)c1ccc(C2SCC(=O)N2Cc2ccccc2)cc1` (centres undefined) yielded a solubility (kinetic) of 37.3 µg/mL (≈ 114 µM).
`CC(C)Oc1ccc(C2NC(=O)c3ccccc3O2)cc1` (centres undefined) showed a kinetic solubility of 2.6 µg/mL (≈ 9.18 µM).
The same measure for `COc1cc(CNCc2ccc3c(c2)OCO3)c([N+](=O)[O-])cc1OC`: 46.6 µg/mL (≈ 135 µM).
Then `O=C(O)COCC(=O)Nc1ccc2c(c1)ncn2CCc1ccccc1`, with more than 53 µg/mL; and `COc1ccc(N2CCN(C(=O)/C=C/c3ccco3)CC2)cc1`, with 10.5 µg/mL (≈ 33.6 µM).
Compound `O=[N+]([O-])c1cccc(S(=O)(=O)N2CCc3ccccc3C2)c1` came in with a solubility (kinetic) of less than 0.3 µg/mL.
`Cc1ccc(C(=O)N2CCC(Cc3ccccc3)CC2)cc1[N+](=O)[O-]`: the kinetic solubility came out at 10.3 µg/mL (≈ 30.4 µM).
Turning to `COc1ccc(-n2c(=S)[nH]c3ccccc3c2=S)cc1`, the kinetic solubility was found to be 1.4 µg/mL (≈ 4.66 µM).
The same measure for `COc1ccc(N2Cc3ccccc3C2=O)cc1`: 12.8 µg/mL (≈ 53.5 µM); for `C[C@H](NC(=O)[C@@H]1Cc2ccccc2CN1)C(=O)NC1CCCC1`: more than 47.3 µg/mL; for `O=C(Cc1ccccc1F)Nc1nc2ccccc2[nH]1`: 2.7 µg/mL (≈ 10 µM).
Compound `N#CCc1nc2ccc(S(=O)(=O)N3CCOCC3)cc2s1` showed a kinetic solubility of 37.2 µg/mL (≈ 115 µM).
The same measure for `C=CCOc1ccc(CN(C)CC(O)COc2cccc3ccccc23)cc1` (centres undefined): 19.5 µg/mL (≈ 51.7 µM).
The same measure for `CCc1noc(C)c1C(=O)Nc1nc(-c2ccccc2)cs1`: 5 µg/mL (≈ 16 µM).
Then `CC1(C)CCc2cc(CN3CCN(c4ccccn4)CC3)ccc2O1`, with 47.5 µg/mL (≈ 141 µM); and `c1ccc(Oc2nc(-c3cccnc3)nc3ccccc23)cc1`, with 0.7 µg/mL (≈ 2.34 µM).
